The record followed here is patent publication US20230320957A1, “COMPOSITION FOR ANTI-AGING OR SKIN REGENERATION COMPRISING ISOPROCURCUMENOL” (POSCO, priority 2020, published 2023).

SMILES strings stand for the structures.

What all share (type): cell-based
One data set addresses EGFR (Homo sapiens, UniProt P00533). In words: EGFR activity measurement biosensor system (EGFP-SH2 fluorescence). As to conditions: 100 μM; cells cultured 24 hours in serum-free medium; compared to DMSO control. Here is the method: In addition, by using the feature that, when the activities of the EGFR continue to be maintained, the EGFR is internalized into the cell, the cell of the biosensor system that may measure the activities of the EGFR was used in the present experimentation (see Korean Laid-open Patent Publication No. 2019-0014340).
After culturing the cells in a serum-free medium for 24 hours, the cells were treated with Isoprocurcumenol.

The subject of data set [1] is HaCaT cells. In words: MTT cytotoxicity assay in HaCaT keratinocytes. Here is the method: The cytotoxicity of Isoprocurcumenol was measured using HaCaT cells as keratinocytes.
When cells are treated with MTT tetrazolium which is a yellow water-soluble substrate, such a substrate is reduced to MTT formazan by mitochondrial enzymes, and the color changes to blue-purple. That is, since the blue-violet color appears darker as the number of living cells increases, the blue-violet absorbance at a wavelength of 540 nm reflects the concentration of living cells.
Specifically, after culturing cells to fill each well of a 96-well plate, the cells were treated with Isoprocurcumenol at concentrations of 0, 10, 25, 50 and 100 μM, and cultured for 24 hours and 48 hours in a 5% CO2 incubator at 37° C. Thereafter, cell viability was measured using MTT reagent. A control group not treated with Isoprocurcumenol (0 μM) was treated with the same amount of the solvent DMSO.
A general note: Formazan colour is commonly taken as a measure of viable cells.

The next data set relates to ERK. Description: ERK activation (phosphorylation) by Western blotting in HaCaT cells. As to conditions: 10 μM. Here is the method: (§1) It is well known that the activities of extracellular signal-regulated kinase (ERK) and protein kinase B (AKT) transmit signals necessary for cell growth and survival by the activities of an EGFR. In addition, in Experimental Example 1, it was observed that Isoprocurcumenol generated signals due to activation of the EGFR in the cells of the biosense system for measuring the activities of the EGFR. Accordingly, it was measured whether the activities of the EGFR were induced by Isoprocurcumenol to the activities of the ERK and AKT.
(§2) Specifically, HaCaT cells were cultured in a serum-free medium, treated with 10 μM of Isoprocurcumenol for 10 minutes, 30 minutes and 60 minutes, respectively, and, thereafter, phosphorylated and activated ERK and AKT were analyzed by Western blotting. As antibodies, a phosphorylation antibody as a marker of activated ERK and AKT, and a general antibody for measuring all thereof were used, respectively.

The next data set concerns AKT. Description: AKT activation (phosphorylation) by Western blotting in HaCaT cells. As to conditions: 10 μM. Here is the method:
as §1, §2

For another data set, the system named is egr1. Description: egr1 gene expression by real-time quantitative PCR in HaCaT cells. To be noted: 10 μM, 1 hour, serum-free medium. An excerpt:
(§3) Signaling by an EGFR induces the expression of genes important for cell growth and survival through important signaling mediator proteins such as ERK and AKT. The egr1, c-myc, c-jun and c-fos genes are regulated by the EGFR and are well known as genes that promote cell growth and survival.
(§4) Specifically, Tri-reagent was used for mRNA extraction, cDNA was created by a reverse transcription polymerase chain reaction (RT-PCR) using a poly-A primer and a reverse transcriptase, and real-time quantitative PCR was used to measure the amount of each mRNA. The amount of each mRNA was corrected with the amount of β-actin, which is a constitutive gene.

The next data set deals with c-myc. Description: c-myc gene expression by real-time quantitative PCR in HaCaT cells. To be noted: 10 μM, 1 hour, serum-free medium.
Excerpt: as §3, §4

Another data set relates to c-jun. In words: c-jun gene expression by real-time quantitative PCR in HaCaT cells. As to conditions: 10 μM, 1 hour, serum-free medium.
Excerpt: as §3, §4

The next data set relates to c-fos. In words: c-fos gene expression by real-time quantitative PCR in HaCaT cells. As to conditions: 10 μM, 1 hour, serum-free medium.
Excerpt: as §3, §4

The test system of data set [2] is HaCaT cells. Description: CCK-8 assay of growth and proliferation of keratinocytes. To be noted: 24 hours, serum-free medium, p<0.05. Here is the method: Cell counting kit-8 (CCK-8) is a water-soluble tetrazolium salt reagent called WST-8 and forms orange-colored water-soluble Formazan by dehydrogenase in the mitochondria of living cells.
Specifically, after culturing 1×10^4 HaCaT cells in a 96-well plate for 24 hours, the cells were changed to a serum-free medium to remove the growth factors contained in the medium, and treated with Isoprocurcumenol at the concentrations of 1 nM, 10 nM, 100 nM, 1 μM and 10 μM. […] After cultured for 24 hours, the cells were treated with CCK8, and the cell growth was analyzed by measuring absorbance at 450 nm.

Data set [3] concerns HaCaT cells. In words: Wound healing assay. To be noted: 1 μM. Here is the method:
The cell growth promoting effect of Isoprocurcumenol was confirmed through wound healing assay. Specifically, after fully culturing HaCaT cells in a 12-well plate, cells on a certain area were scraped off using a yellow tip to form a wound area, changed to a serum-free medium, and treated with 1 μM of Isoprocurcumenol.

In data set [4] the test system is HaCaT cells. Description: Resistance to UVB-induced cell damage (CCK-8 viability). As to conditions: 1 μM, UVB 500 mJ/cm2, serum-free medium, negative control about 40%. Here is the method: Among the ultraviolet wavelengths, UVB wavelengths corresponding to 280 to 315 nm penetrate the epidermal layer where many keratinocytes exist to cause cell damage.
The solvent DMSO was used as a negative control group, and the cell viability was measured using the CCK-8 method used in Experimental Example 6.

EGFR, sequence (P00533 25-1210, species assumed): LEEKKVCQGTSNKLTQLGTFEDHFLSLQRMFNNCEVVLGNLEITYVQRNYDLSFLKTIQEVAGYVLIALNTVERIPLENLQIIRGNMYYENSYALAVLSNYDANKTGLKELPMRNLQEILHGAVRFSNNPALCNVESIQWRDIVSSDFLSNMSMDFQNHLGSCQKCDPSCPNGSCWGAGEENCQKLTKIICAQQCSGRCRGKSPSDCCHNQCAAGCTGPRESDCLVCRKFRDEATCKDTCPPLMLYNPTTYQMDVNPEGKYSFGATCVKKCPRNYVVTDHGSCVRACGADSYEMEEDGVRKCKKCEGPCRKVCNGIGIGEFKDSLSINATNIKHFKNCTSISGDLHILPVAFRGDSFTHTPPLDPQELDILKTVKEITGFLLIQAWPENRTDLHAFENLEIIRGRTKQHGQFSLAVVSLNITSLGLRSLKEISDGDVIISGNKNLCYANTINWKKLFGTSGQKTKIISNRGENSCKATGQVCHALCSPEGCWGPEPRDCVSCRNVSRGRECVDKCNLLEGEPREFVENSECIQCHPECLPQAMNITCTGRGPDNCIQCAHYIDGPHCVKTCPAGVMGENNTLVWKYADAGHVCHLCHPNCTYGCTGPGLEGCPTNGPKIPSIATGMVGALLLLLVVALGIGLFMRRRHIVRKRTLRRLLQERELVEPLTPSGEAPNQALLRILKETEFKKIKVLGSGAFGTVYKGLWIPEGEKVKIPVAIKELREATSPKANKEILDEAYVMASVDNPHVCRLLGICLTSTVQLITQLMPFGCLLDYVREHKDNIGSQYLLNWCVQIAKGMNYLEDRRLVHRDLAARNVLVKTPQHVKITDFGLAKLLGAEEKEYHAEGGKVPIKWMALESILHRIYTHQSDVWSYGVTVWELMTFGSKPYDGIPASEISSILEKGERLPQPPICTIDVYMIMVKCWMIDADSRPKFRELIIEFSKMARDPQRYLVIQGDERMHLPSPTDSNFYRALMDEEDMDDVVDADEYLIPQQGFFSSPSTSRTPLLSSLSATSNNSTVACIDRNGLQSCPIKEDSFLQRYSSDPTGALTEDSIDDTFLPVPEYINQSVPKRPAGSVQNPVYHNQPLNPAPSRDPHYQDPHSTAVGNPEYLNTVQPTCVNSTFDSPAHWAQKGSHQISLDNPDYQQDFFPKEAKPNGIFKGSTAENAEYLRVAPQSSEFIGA

As to `C=C1CC(=O)C(=C(C)C)C[C@H]2[C@H]1CC[C@]2(C)O` [Isoprocurcumenol], at EGFR, the “EGFR activation (fluorescence signal of biosensor cells)” value was “activated”. The “cytotoxicity in keratinocytes (overall)” value in the data set with HaCaT cells [1] (0-100 μM, 24 hours and 48 hours, MTT) is listed as “very low”. The “cytotoxicity (difference in cell viability)” value in the data set with HaCaT cells [1] (100 μM, cultured 48 hours, MTT) was 10%. In the data set on HaCaT cells [1] (concentration of 10 μM or less), the cytotoxicity entry is reported as “free of cytotoxicity”. Further, the “time to ERK activation” value with ERK is not above 30 min. Moreover, the “induction of ERK activity” value with ERK (10 minutes, serum-free medium) is listed as “sufficiently induced”. Moreover, in the data set on AKT, the “time to AKT activation” value is not above 30 min. The “induction of AKT activity” value in the data set with AKT (10 minutes, serum-free medium) is listed as “sufficiently induced”. Moreover, the “egr1 mRNA (corrected with β-actin)” value with egr1 is “increased”. The “c-myc mRNA (corrected with β-actin)” value in the data set on c-myc is listed as “increased”. The “c-jun mRNA (corrected with β-actin)” value with c-jun is recorded as “increased”. Further, the “c-fos mRNA (corrected with β-actin)” value in the data set with c-fos is reported as “increased”. Further, the “growth and proliferation of cells vs negative control” value with HaCaT cells [2] (10 nM), with HaCaT cells [2] (100 nM), in the data set with HaCaT cells [2] (1 μM) and with HaCaT cells [2] (10 μM) was “significantly increased” in each case. Moreover, in the data set with HaCaT cells [3] (culture for 6 days, serum-free medium), the “filling of wound area vs negative control” value is “more quickly filled”. Moreover, the “difference in wound area vs negative control” value in the data set with HaCaT cells [3] (from the 3rd day, t-test p<0.05) was “more significant difference”. Further, the “cells survived after UVB” value in the data set with HaCaT cells [4] is “about 60%”.
